This is an account of results in US10004732B2 (Novartis AG, priority 2014, dated 2018).

Broadly, the IC50 is the concentration that gives 50% inhibition.

Series [1] in a line: Microsomal clearance assay (M).
Description: The experiments were performed in 96-well glass plates at 37° C. on an automated Tecan EVO platform. Test compounds at a concentration of 10 mM in pure DMSO were diluted 1:1000 in water to 10 μM. […] Reactions were initiated by the addition of 150 μL of a cofactor solution containing 2 mM NADPH.
For another series, the target named is PI 4-kinase beta (Homo sapiens, UniProt Q9UBF8). As to the kind of experiment: Kinase Glo Luminescent Kinase Assay (Kglo), assay D. The class given is biochemical. The following applies: read-out: Assay D PI4Kβ IC50. (In Kinase-Glo more light means more ATP remaining.)
The next series concerns the target PI 3-kinase delta (Homo sapiens, UniProt O00329). As to the kind of experiment: TR-FRET Adapta assay, assay F. Background: In TR-FRET formats the signal depends on donor and acceptor labels being close together.
The target of a further series is PI 3-kinase alpha (Homo sapiens, UniProt P42336). As to the kind of experiment: Kinase Glo Luminescent Kinase Assay (Kglo), assay A. The format is biochemical. The following applies: read-out: Assay A PI3Kα IC50.
A further series addresses Vps34 (Homo sapiens, UniProt Q8NEB9). Nature of the series: Kinase Glo Luminescent Kinase Assay (Kglo), assay C. The class given is biochemical. The following applies: read-out: Assay C VPS34 IC50.
The target in the next series is PI 3-kinase gamma (Homo sapiens, UniProt P48736). Nature of the series: TR-FRET Adapta assay, assay E. The following applies: read-out: Assay E PI3Kγ IC50. The format is biochemical.
Another series addresses PI 3-kinase beta (Homo sapiens, UniProt P42338). As to the kind of experiment: Kinase Glo Luminescent Kinase Assay (Kglo), assay B. The format is biochemical. The following applies: read-out: Assay B PI3Kβ IC50.
A further series concerns the target mTOR (Homo sapiens, UniProt P42345). Nature of the series: Lanthascreen kinase binding assay, assay G. The following applies: read-out: Assay G mTOR IC50.
Setting [2] is: rat liver microsomes, intrinsic clearance.
Where [3] appears, read: intrinsic clearance in rat liver microsomes.

Structures are written as SMILES. Like-named read-outs stand apart in the source and are kept apart here.

Chain of Vps34 (Q8NEB9 whole entry, species assumed): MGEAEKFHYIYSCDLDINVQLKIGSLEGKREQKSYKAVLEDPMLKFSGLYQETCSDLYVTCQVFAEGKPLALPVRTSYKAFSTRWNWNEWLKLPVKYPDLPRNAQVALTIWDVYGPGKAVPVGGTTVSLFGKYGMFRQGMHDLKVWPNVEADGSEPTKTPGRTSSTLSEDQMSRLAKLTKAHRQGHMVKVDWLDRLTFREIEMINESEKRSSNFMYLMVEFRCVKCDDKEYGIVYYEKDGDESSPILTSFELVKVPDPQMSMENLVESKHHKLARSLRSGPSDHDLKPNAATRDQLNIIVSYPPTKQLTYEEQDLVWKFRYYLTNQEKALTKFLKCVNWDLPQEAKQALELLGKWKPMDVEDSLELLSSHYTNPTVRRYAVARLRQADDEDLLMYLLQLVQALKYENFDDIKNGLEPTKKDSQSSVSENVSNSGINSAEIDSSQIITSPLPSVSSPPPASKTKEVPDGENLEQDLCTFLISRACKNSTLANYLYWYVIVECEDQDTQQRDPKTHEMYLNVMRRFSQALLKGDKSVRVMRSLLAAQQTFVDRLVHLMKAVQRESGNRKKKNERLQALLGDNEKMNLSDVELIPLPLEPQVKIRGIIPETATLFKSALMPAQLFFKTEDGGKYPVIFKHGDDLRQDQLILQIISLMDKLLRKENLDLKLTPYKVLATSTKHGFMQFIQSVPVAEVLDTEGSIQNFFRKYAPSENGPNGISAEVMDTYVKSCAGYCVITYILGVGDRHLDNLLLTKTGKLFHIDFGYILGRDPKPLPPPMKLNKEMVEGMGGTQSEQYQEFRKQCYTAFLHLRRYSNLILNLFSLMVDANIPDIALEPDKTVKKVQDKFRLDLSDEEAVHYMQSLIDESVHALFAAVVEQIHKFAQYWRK
Chain of PI 3-kinase delta (O00329 whole entry): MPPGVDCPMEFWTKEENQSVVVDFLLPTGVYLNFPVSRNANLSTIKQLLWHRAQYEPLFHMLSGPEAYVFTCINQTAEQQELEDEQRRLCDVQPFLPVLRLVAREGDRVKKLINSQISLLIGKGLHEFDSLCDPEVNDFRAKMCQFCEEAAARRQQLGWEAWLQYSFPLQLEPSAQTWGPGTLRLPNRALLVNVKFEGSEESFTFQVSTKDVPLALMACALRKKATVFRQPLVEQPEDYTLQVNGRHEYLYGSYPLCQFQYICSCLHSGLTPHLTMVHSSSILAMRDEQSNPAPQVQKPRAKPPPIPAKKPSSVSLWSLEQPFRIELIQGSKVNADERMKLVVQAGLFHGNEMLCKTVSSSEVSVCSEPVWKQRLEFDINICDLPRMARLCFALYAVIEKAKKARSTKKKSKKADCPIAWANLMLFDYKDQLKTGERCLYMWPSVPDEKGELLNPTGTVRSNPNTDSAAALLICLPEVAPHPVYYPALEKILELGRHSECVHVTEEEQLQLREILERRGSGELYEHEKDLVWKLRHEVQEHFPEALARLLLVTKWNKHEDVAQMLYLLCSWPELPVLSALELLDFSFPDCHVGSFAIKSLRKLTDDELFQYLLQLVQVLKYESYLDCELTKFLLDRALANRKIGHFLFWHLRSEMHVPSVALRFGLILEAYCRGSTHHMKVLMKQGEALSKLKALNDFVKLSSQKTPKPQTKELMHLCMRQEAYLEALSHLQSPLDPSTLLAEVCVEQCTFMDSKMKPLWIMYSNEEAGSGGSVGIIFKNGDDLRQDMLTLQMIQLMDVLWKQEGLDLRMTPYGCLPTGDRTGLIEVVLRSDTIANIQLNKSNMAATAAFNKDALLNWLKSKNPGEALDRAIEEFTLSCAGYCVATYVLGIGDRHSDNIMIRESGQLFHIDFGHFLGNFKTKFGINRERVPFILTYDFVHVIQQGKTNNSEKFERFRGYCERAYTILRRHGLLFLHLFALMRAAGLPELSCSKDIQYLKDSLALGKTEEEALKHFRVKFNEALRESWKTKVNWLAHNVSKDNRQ
Chain of PI 3-kinase delta (P27986 461-568 partner): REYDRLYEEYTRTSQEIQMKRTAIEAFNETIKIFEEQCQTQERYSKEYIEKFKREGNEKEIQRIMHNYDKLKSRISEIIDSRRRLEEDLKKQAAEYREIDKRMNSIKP
Chain of PI 3-kinase gamma (P48736 whole entry): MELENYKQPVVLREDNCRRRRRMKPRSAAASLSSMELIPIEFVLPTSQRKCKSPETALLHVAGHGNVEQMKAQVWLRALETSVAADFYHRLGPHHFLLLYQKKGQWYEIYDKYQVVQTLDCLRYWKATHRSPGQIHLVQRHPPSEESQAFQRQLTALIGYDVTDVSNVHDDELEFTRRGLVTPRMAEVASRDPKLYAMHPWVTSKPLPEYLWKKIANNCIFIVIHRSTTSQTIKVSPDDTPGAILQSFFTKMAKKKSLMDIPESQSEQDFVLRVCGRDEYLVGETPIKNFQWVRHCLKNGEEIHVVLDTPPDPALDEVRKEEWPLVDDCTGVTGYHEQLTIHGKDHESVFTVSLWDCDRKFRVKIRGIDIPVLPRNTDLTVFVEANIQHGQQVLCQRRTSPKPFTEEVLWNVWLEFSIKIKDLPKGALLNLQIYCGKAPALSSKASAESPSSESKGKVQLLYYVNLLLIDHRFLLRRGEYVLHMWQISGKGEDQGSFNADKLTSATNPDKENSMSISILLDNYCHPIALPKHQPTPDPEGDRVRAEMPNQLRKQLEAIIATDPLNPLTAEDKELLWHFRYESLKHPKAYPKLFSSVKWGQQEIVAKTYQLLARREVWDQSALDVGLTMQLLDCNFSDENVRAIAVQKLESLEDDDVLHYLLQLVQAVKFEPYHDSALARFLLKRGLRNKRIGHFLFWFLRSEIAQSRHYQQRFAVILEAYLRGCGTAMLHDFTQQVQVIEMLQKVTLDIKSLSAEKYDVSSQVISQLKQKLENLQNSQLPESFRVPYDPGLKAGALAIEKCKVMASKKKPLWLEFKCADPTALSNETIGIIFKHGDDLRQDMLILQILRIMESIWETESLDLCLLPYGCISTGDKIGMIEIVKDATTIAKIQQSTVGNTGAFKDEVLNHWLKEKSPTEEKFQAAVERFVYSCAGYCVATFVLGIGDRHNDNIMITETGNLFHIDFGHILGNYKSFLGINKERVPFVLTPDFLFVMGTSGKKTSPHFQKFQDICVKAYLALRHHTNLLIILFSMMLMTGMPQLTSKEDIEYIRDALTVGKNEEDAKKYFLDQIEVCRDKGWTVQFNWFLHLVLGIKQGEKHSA
Chain of PI 3-kinase alpha (P42336 whole entry): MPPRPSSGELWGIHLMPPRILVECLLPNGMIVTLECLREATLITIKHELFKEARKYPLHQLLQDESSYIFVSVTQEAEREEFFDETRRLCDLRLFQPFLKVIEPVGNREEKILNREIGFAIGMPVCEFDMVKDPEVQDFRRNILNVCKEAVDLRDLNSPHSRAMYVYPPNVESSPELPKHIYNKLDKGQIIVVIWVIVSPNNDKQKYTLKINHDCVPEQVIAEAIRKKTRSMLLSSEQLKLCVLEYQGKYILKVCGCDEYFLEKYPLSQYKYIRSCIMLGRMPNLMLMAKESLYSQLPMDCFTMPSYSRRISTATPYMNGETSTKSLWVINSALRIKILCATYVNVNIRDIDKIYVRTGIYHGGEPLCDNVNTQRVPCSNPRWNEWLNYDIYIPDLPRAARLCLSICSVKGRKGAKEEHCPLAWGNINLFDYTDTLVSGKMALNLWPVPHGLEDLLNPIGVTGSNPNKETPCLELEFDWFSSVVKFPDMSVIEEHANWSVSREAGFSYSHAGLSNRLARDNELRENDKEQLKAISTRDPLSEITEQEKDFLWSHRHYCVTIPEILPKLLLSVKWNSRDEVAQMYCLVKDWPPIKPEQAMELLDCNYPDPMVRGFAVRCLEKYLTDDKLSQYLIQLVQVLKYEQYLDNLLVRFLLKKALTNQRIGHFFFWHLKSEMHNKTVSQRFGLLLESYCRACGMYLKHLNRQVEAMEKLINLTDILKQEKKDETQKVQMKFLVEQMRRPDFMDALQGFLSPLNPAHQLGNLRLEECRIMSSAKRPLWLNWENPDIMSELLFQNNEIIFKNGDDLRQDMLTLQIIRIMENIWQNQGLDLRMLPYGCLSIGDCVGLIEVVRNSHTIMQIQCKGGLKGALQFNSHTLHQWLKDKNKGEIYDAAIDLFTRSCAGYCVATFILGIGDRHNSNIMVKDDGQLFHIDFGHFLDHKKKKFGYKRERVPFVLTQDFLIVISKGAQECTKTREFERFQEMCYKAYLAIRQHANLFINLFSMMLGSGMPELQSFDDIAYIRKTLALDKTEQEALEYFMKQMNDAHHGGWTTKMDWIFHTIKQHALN
Chain of PI 4-kinase beta (Q9UBF8 whole entry): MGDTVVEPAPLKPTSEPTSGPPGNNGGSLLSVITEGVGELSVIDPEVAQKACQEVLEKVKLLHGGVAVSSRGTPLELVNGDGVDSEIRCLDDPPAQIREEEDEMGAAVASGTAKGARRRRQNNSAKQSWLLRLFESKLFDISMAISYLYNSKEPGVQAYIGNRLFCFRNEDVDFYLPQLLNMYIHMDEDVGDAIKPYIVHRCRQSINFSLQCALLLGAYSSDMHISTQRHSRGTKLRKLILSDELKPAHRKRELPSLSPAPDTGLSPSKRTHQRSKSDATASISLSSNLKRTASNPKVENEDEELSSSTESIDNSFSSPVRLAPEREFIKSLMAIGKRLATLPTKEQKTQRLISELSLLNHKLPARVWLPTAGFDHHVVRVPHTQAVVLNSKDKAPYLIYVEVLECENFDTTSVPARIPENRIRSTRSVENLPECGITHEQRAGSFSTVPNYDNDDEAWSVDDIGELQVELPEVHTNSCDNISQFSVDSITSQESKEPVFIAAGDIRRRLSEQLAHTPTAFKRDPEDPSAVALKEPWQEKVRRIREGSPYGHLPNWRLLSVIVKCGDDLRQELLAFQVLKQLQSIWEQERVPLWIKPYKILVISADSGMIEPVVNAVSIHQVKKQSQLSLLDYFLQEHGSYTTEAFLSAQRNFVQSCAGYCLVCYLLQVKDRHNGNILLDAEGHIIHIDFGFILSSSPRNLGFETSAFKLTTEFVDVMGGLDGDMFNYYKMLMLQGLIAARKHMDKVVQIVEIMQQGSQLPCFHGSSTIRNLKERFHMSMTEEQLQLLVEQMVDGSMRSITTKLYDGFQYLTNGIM
Description for Vps34: Kinase Glo Luminescent Kinase Assay (Kglo) for Pb 3-Kinase Alpha (A), Pb 3-Kinase Beta (B), Vps34 (C), Pb 4-Kinase Beta (D)
The Kinase Glo Luminescent Kinase Assay (Promega, Madison/Wis., USA) is a homogeneous HTS method of measuring kinase activity by quantifying the amount of ATP remaining in solution following a kinase reaction.
L-α-phosphatidylinositol (PI), provided as 10 mg/ml solution in methanol, was transferred into a glass tube and dried under a nitrogen beam. It was then resuspended in 3% OctylGlucoside (1-0-n-octyl-beta-D-glucopyranoside) by vortexing and stored at 4° C. 5 μL of a mix of PI/OctylGlucoside with the PI 3-kinase alpha and PI 3-kinase beta subtypes, or Vps34 or PI 4-kinase beta were added. Kinase reactions were started by the addition of 5 μl of an ATP-mix containing in a final volume 10 μL 10 mM TRIS-HCl pH 7.5, 3 mM MgCl2, 50 mM NaCl, 0.05% CHAPS, 1 mM DTT and 1 μM ATP at room temperature.
All fits were performed with the program XLfit4 (ID Business Solutions, Guildford, UK).
Description for mTOR: Lanthascreen™ Kinase Binding Assay for mTOR (G)
Binding of an inhibitor to the kinase competes for binding with the tracer, resulting in a loss of FRET.
50 nL of compound dilutions were dispensed onto white 384-well small volume polystyrene plate.

In series [1] (setting [2]), `Cc1ccc(S(=O)(=O)N2CCOCC2)cc1-c1cnc(N)c(C(=O)c2cccnc2)c1` [(i), reference compound] returned an Assay M RLM CI(int) of 47 µL/min/mg.
`CN1CCN(S(=O)(=O)c2cccc(-c3cnc(N)c(C(=O)c4cccnc4)c3)c2)CC1` [(ii), reference compound] displayed an Assay M RLM CI(int) in series [1] (setting [2]) of 233 µL/min/mg.
With `CC(C)(C)c1ccc(C(=O)c2cc(-c3cccc(S(=O)(=O)NC4CC4)c3)cnc2N)cc1` [(iii), reference compound], in series [1] (setting [2]), the Assay M RLM CI(int) is 219 µL/min/mg.
Take `COCCNS(=O)(=O)c1cccc(-c2cnc(N)c(C(=O)c3cccnc3)n2)c1` [(iv), reference compound]: the Assay M RLM CI(int) in series [1] (setting [2]) amounted to 465 µL/min/mg.
Take `Cc1ccc(S(=O)(=O)N2CCOCC2)cc1-c1cnc(N)c(C(=O)c2cccnc2)n1` [(ix), reference compound]: in series [1] (setting [2]), the Assay M RLM CI(int) turned out to be 267 µL/min/mg.
With `Nc1ncc(-c2ccc(Cl)c(S(=O)(=O)N[C@H]3CC[C@H](O)CC3)c2)nc1C(=O)c1cccnc1` [(v), reference compound], the Assay M RLM CI(int) in series [1] (setting [2]) was 173 µL/min/mg.
As for `COCCNS(=O)(=O)c1cc(-c2cnc(N)c(C(=O)c3cccnc3)n2)ccc1Cl` [(vi), reference compound], the Assay M RLM CI(int) in series [1] (setting [2]) was 630 µL/min/mg.
Consider `COCCNS(=O)(=O)c1cc(-c2cnc(N)c(C(=O)c3cccnc3)n2)c(F)cc1F` [(vii), reference compound], for which the Assay M RLM CI(int) in series [1] (setting [2]) is 283 µL/min/mg.
Regarding `CNC(=O)c1nc(-c2ccc(Cl)c(S(=O)(=O)Nc3cccc(F)c3C)c2)cnc1N` [(xi), reference compound], in series [1] (setting [2]), the Assay M RLM CI(int) worked out at 271 µL/min/mg.
With `Cc1nc(N)ncc1-c1ccc(Cl)c(S(=O)(=O)NCCO)c1` [(xii), reference compound], in series [1] (setting [2]), the Assay M RLM CI(int) turned out to be 9 µL/min/mg.
Turning to `Cc1ncc(-c2nc(-c3cc(S(=O)(=O)NCC4CCOCC4)ccc3C)cnc2N)s1` [Example 45.2, 3-(5-Amino-6-(2-methylthiazol-5-yl)pyrazin-2-yl)-4-methyl-N-((tetrahydro-2H-pyran-4-yl)methyl)benzenesulfonamide], the “Assay M RLM CI(int)” value in series [1] (setting [3]) is 194 µL/min/mg. Also, the IC50 stood at 5800 nM at PI 4-kinase beta; 50 nM on PI 3-kinase delta (read-out: Assay F PI3Kδ IC50); 40 nM on PI 3-kinase alpha; 6000 nM at Vps34; 18 nM at PI 3-kinase gamma; 370 nM at PI 3-kinase beta.
Consider `Cc1ncc(-c2nc(-c3cc(S(=O)(=O)NCC(F)(F)F)ccc3C)cnc2N)s1` [Example 45.5, 3-(5-Amino-6-(2-methylthiazol-5-yl)pyrazin-2-yl)-4-methyl-N-(2,2,2-trifluoroethyl)benzenesulfonamide], for which the “Assay M RLM CI(int)” value in series [1] (setting [3]) came to 147 µL/min/mg. In addition, the concentration for half-maximal inhibition (IC50) on PI 4-kinase beta was 780 nM; at Vps34, 650 nM.
For `Cc1ncc(-c2nc(-c3cc(S(=O)(=O)N[C@@H]4CCOC4)ccc3C)cnc2N)s1` [Example 45.7a, (R)-3-(5-Amino-6-(2-methylthiazol-5-yl)pyrazin-2-yl)-4-methyl-N-(tetrahydrofuran-3-yl)benzenesulfonamide or (5)-3-(5-Amino-6-(2-methylthiazol-5-yl)pyrazin-2-yl)-4-methyl-N-(tetrahydrofuran-3-yl)benzenesulfonamide], in series [1] (setting [3]), the “Assay M RLM CI(int)” value came to 151 µL/min/mg.
Turning to `Cc1ncc(-c2nc(-c3cc(S(=O)(=O)N[C@@H]4CCOC4)ccc3C)cnc2N)s1` [Example 45.7b, (R)-3-(5-Amino-6-(2-methylthiazol-5-yl)pyrazin-2-yl)-4-methyl-N-(tetrahydrofuran-3-yl)benzenesulfonamide or (5)-3-(5-Amino-6-(2-methylthiazol-5-yl)pyrazin-2-yl)-4-methyl-N-(tetrahydrofuran-3-yl)benzenesulfonamide], the “Assay M RLM CI(int)” value in series [1] (setting [3]) came out at 135 µL/min/mg.
As for `Cc1nc(C)c(-c2nc(-c3cc(S(=O)(=O)NCC(C)(C)O)ccc3C)cnc2N)s1` [Example 46.1, 3-(5-Amino-6-(2,4-dimethylthiazol-5-yl)pyrazin-2-yl)-N-(2-hydroxy-2-methylpropyl)-4-methylbenzenesulfonamide], in series [1] (setting [3]), the “Assay M RLM CI(int)” value amounted to 16 µL/min/mg. Moreover, the concentration for half-maximal inhibition (IC50) at PI 4-kinase beta is more than 10000 nM; on PI 3-kinase delta (read-out: Assay F PI3Kδ IC50) it was 2600 nM; on PI 3-kinase alpha it was 1400 nM; at Vps34, more than 10000 nM; at PI 3-kinase gamma it was 210 nM; on mTOR, more than 10000 nM. For the same compound, the IC50 on PI 3-kinase beta is more than 10000 nM.
As for `Cc1cn(-c2nc(-c3cc(S(=O)(=O)NCC(C)(C)O)ccc3C)cnc2N)c(C)n1` [Example 50, 3-(5-Amino-6-(2,4-dimethyl-1H-imidazol-1-yl)pyrazin-2-yl)-N-(2-hydroxy-2-methylpropyl)-4-methylbenzenesulfonamide], the “Assay M RLM CI(int)” value in series [1] (setting [3]) was found to be 28 µL/min/mg. Also, the concentration for half-maximal inhibition (IC50) at PI 4-kinase beta was more than 10000 nM; on PI 3-kinase delta (read-out: Assay F PI3Kδ IC50) it was more than 10000 nM; at PI 3-kinase alpha, 2500 nM; at Vps34 it was more than 10000 nM; on PI 3-kinase gamma, 850 nM; on mTOR, more than 10000 nM. Moreover, the half-maximal inhibitory concentration (IC50) on PI 3-kinase beta was found to be 2800 nM.
With `Cc1nnc(-c2nc(-c3cc(S(=O)(=O)NCC(C)(C)O)ccc3C)cnc2N)o1` [Example 90, 3-(5-Amino-6-(5-methyl-1,3,4-oxadiazol-2-yl)pyrazin-2-yl)-N-(2-hydroxy-2-methylpropyl)-4-methylbenzenesulfonamide], in series [1] (setting [3]), the “Assay M RLM CI(int)” value is 19 µL/min/mg. The IC50 at PI 4-kinase beta was more than 10000 nM; at PI 3-kinase delta (read-out: Assay F PI3Kδ IC50), 2000 nM; on PI 3-kinase alpha it was 2100 nM; at Vps34, more than 10000 nM; at PI 3-kinase gamma, 78 nM; on mTOR, more than 10000 nM. For the same compound, at PI 3-kinase beta, the concentration for half-maximal inhibition (IC50) is 940 nM.
On to `Cc1ccc(S(=O)(=O)NCC(C)(C)O)cc1-c1cnc(N)c(-c2noc(C3CC3)n2)n1` [Example 91, 3-(5-Amino-6-(5-cyclopropyl-1,2,4-oxadiazol-3-yl)pyrazin-2-yl)-N-(2-hydroxy-2-methylpropyl)-4-methylbenzenesulfonamide], for which, in series [1] (setting [3]), the “Assay M RLM CI(int)” value is 46 µL/min/mg. Besides, the half-inhibitory concentration (IC50) at PI 4-kinase beta was more than 9550 nM; at PI 3-kinase delta (read-out: Assay F PI3Kδ IC50) it was 2100 nM; at PI 3-kinase alpha, 2350 nM; on Vps34, more than 9550 nM; on PI 3-kinase gamma, 270 nM; on mTOR, more than 9550 nM. Further, the concentration for half-maximal inhibition (IC50) at PI 3-kinase beta came out at 2550 nM.
Take `Cc1ccc(S(=O)(=O)N2CC3(CC(O)C3)C2)cc1-c1cnc(N)c(-n2cncn2)n1` [Example 101, 2-(3-(5-Amino-6-(1H-1,2,4-triazol-1-yl)pyrazin-2-yl)-4-methylphenylsulfonyl)-2-azaspiro[3.3]heptan-6-ol]: the “Assay M RLM CI(int)” value in series [1] (setting [3]) stood at 39 µL/min/mg. The 50% inhibitory concentration (IC50) at PI 4-kinase beta was 2400 nM; at PI 3-kinase delta (read-out: Assay F PI3Kδ IC50), 3000 nM; on PI 3-kinase alpha it was 2000 nM; on Vps34, more than 10000 nM; on PI 3-kinase gamma, 210 nM; at mTOR, more than 10000 nM. Also, the IC50 at PI 3-kinase beta came out at 1700 nM.
Consider `Cc1ncc(-c2nc(-c3cc(S(=O)(=O)NCC4(C)COC4)ccc3C)cnc2N)s1` [Example 120, 3-(5-Amino-6-(2-methylthiazol-5-yl)pyrazin-2-yl)-4-methyl-N-((3-methyloxetan-3-yl)methyl)benzenesulfonamide], for which, in series [1] (setting [3]), the “Assay M RLM CI(int)” value is 95 µL/min/mg. Further, the IC50 was determined as 2500 nM on PI 4-kinase beta; 60 nM at PI 3-kinase delta (read-out: Assay F PI3Kδ IC50); 20 nM on PI 3-kinase alpha; 1300 nM on Vps34; 4 nM on PI 3-kinase gamma; 1000 nM at PI 3-kinase beta.
For the compound `Cc1cc(-c2nc(-c3cc(S(=O)(=O)N[C@H]4CCC[C@@H]4N)ccc3C)cnc2N)ccn1` [Example 129.38, 3-(5-amino-6-(2-methylpyridin-4-yl)pyrazin-2-yl)-N-((1S,2S)-2-aminocyclopentyl)-4-methylbenzenesulfonamide], the IC50 was more than 9100 nM on PI 4-kinase beta; 4500 nM against PI 3-kinase delta; 1600 nM on PI 3-kinase alpha; more than 9100 nM at Vps34; 820 nM on PI 3-kinase gamma; more than 9100 nM on mTOR. At PI 3-kinase beta, the IC50 is 2700 nM.
`Cc1cc(-c2nc(-c3cc(S(=O)(=O)N4CC[C@@H](N)C4)ccc3C)cnc2N)ccn1` [Example 129.40, (R)-5-(5-(3-aminopyrrolidin-1-ylsulfonyl)-2-methylphenyl)-3-(2-methylpyridin-4-yl)pyrazin-2-amine]: the 50% inhibitory concentration (IC50) at PI 4-kinase beta was more than 9100 nM; on PI 3-kinase delta (read-out: Assay F PI3Kδ IC50), 4000 nM; on PI 3-kinase alpha, 670 nM; at Vps34, more than 9100 nM; at PI 3-kinase gamma it was 1100 nM; on mTOR, more than 9100 nM. Moreover, on PI 3-kinase beta, the concentration for half-maximal inhibition (IC50) was 6400 nM.
With `Cc1cc(-c2nc(-c3cc(S(=O)(=O)NC[C@H]4CCC[C@@H](CN)C4)ccc3C)cnc2N)ccn1` [Example 129.42, 3-(5-amino-6-(2-methylpyridin-4-yl)pyrazin-2-yl)-N-(((1S,3R)-3-(aminomethyl)cyclohexyl)methyl)-4-methylbenzenesulfonamide], the half-inhibitory concentration (IC50) is more than 9100 nM on PI 4-kinase beta; 1700 nM at PI 3-kinase delta (read-out: Assay F PI3Kδ IC50); 2000 nM at PI 3-kinase alpha; more than 9100 nM on Vps34; 150 nM on PI 3-kinase gamma; more than 9100 nM on mTOR. The 50% inhibitory concentration (IC50) at PI 3-kinase beta was 6600 nM.
As to `Cc1cc(-c2nc(-c3cc(S(=O)(=O)N[C@H]4CC[C@H](N)CC4)ccc3C)cnc2N)ccn1` [Example 129.43, 3-(5-amino-6-(2-methylpyridin-4-yl)pyrazin-2-yl)-N-((1r,4r)-4-aminocyclohexyl)-4-methylbenzenesulfonamide], the half-maximal inhibitory concentration (IC50) at PI 4-kinase beta is more than 9100 nM; on PI 3-kinase delta (read-out: Assay F PI3Kδ IC50), 2300 nM; at PI 3-kinase alpha, 3000 nM; at Vps34 it was more than 9100 nM; at PI 3-kinase gamma, 1000 nM; on mTOR, more than 9100 nM. Also, the IC50 at PI 3-kinase beta stood at 5700 nM.
